Measured values taken from ChEMBL document CHEMBL1201862, “PubChem BioAssay data set” (2004).
The source made the active and inactive calls.

How the values were obtained:
[1] = target: Peroxisome proliferator-activated receptor gamma/Nuclear receptor coactivator 2 (Homo sapiens, UniProt P37231); test: TR-FRET dose response biochemical High Throughput Screening assay for agonists of the steroid receptor coactivator 2 (SRC-2) recruitment by the peroxisome proliferator-activated receptor gamma (PPAR gamma): non-selective agonists. [Related pubchem assays: 1297, 1032 ]; type: functional
[2] = target: Peroxisome proliferator-activated receptor gamma/Nuclear receptor coactivator 3 (Homo sapiens, UniProt P37231); test: TR-FRET dose response biochemical High Throughput Screening assay for agonists of the steroid receptor coactivator 3 (SRC-3) recruitment by the peroxisome proliferator-activated receptor gamma (PPAR gamma): non-selective agonists. [Related pubchem assays: 1301 (Confirmation screen.), 1048 (Primary screen.)]; type: functional
[3] = NIH-3T3 fibroblast cytotoxicity, dose response, cytotoxicity control, cell-based, fluorescence, Alamar Blue, secondary assay (AID 2327); type: functional;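 also: NIH-3T3 mouse fibroblasts cultured with fluconazole at 8 µg/mL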
[4] = fluconazole-exposed Candida albicans growth modulators – fluorescence, retest, confirmation (AID 2467); type: functional, cell-based
[5] = target: Peroxisome proliferator-activated receptor gamma/Nuclear receptor coactivator 1 (Homo sapiens, UniProt P37231); test: TR-FRET dose response biochemical High Throughput Screening assay for agonists of the steroid receptor coactivator 1 (SRC-1) recruitment by the peroxisome proliferator-activated receptor gamma (PPAR gamma): non-selective agonists. [Related pubchem assays (depositor defined):AID1300, AID1808, AID504735, AID631]; type: protein assay
[6] = target: T1, Glutathione-S-transferase (Schistosoma japonicum, UniProt Q26513); test: GST-antibody interaction or FRET quenching – biochemical, TR-FRET, artefact control for Vif-APOBEC3G degradation inhibitor project, dose response (AID 1117362); type: functional
T1 sequence (Q26513 whole entry): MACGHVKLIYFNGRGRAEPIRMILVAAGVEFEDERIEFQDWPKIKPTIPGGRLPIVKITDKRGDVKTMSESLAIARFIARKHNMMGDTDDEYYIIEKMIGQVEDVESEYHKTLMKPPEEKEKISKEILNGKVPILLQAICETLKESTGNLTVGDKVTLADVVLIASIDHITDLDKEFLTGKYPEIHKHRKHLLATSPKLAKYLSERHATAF

[7] = target: T2, Ubiquitin-conjugating enzyme E2 N (Homo sapiens, UniProt P61088); type: functional
T2 sequence (P61088 whole entry): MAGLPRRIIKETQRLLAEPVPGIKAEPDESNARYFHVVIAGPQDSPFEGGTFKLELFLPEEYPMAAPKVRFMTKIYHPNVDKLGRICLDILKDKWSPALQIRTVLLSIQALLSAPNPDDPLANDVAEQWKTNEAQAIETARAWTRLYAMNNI

[8] = target: T2, Ubiquitin-conjugating enzyme E2 N; type: functional; remark: listed apart in the source
Bcl-2-related protein A1 = target: T3, Bcl-2-related protein A1 (Mus musculus, UniProt Q07440); type: functional;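 also: confirmatory dose–response counterscreen on Bfl-1, used to check hits from a UBC13 polyubiquitin inhibitor campaign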
T3 sequence (Q07440 whole entry): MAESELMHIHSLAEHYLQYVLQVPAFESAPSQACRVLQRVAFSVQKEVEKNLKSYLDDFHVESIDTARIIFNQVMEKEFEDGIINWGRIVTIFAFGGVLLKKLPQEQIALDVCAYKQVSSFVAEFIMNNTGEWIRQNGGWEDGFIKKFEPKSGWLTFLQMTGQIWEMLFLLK

[9] = target: T4, Type-1 angiotensin II receptor (Homo sapiens, UniProt P30556); test: agonist activity at AGTR1 – cell-based, uHTS hits, selectivity assay for APJ receptor agonist project, dose response (AID 488865); type: functional;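 also: beta-arrestin recruitment to AT1 measured by enzyme fragment complementation luminescence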
T4 sequence (P30556 whole entry): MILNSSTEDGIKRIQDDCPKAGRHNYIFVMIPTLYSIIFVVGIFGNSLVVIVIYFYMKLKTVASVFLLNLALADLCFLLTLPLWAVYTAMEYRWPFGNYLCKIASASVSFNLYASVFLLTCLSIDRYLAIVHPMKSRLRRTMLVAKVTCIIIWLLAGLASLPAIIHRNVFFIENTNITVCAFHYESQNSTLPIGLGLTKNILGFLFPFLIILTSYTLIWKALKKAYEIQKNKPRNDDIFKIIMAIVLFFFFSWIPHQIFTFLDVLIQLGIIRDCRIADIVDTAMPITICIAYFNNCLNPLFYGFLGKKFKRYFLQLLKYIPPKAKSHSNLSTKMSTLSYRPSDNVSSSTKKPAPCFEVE

[10] = target: T5, Short transient receptor potential channel 4 (Mus musculus, UniProt Q9QUQ5); test: calcium entry via TRPC4 opening agents – cell-based, HEK293 TRPC4/mu-opioid, Fluo-4 calcium, dose response (AID 434937); type: functional
T5 sequence (Q9QUQ5 whole entry): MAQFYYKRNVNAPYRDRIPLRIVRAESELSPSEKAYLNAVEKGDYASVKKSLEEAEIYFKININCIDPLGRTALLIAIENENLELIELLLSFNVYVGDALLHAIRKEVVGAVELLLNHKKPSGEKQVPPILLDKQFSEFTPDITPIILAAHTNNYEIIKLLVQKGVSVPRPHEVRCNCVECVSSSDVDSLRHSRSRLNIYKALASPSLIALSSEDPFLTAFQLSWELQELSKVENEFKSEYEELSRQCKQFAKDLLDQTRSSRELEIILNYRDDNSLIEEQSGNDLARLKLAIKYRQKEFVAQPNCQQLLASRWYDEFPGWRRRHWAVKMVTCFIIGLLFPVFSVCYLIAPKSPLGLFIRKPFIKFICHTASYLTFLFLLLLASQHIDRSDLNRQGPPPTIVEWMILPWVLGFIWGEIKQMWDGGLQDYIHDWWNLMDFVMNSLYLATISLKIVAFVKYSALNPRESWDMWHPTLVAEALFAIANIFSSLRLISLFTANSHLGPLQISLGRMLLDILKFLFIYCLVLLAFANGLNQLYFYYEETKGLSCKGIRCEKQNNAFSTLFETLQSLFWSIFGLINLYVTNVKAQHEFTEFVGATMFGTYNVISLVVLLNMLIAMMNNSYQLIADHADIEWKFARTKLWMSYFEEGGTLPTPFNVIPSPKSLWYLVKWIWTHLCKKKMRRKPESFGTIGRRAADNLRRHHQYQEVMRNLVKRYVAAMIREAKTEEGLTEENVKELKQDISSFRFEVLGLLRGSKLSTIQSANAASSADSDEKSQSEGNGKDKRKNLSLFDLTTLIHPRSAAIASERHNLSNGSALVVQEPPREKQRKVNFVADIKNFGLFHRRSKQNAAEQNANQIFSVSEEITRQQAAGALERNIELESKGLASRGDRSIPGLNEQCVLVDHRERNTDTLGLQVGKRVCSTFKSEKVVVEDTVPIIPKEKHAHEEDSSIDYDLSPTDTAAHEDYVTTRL

Mu-type opioid receptor = Mu-type opioid receptor (Homo sapiens, UniProt P35372); test: HTS Image-Based Screen for Agonists of the MOR Receptor. [Related pubchem assays (depositor defined):AID1777, AID1785, AID1786, AID2133]; type: functional;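 also: imaging of beta-arrestin GFP recruitment into spots after receptor activation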
Streptococcus = test: GAS UMAA2166 growth inhibition – luminescence, BacTiterGlo, counter-screen for streptokinase expression inhibitor project, dose response (AID 1915); type: functional, organism-based;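 also: potency for reduction of bacterial viability or growth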
[11] = target: T6, Kappa-type opioid receptor (Homo sapiens, UniProt P41145); type: functional
Beta-galactosidase = Beta-galactosidase (Escherichia coli, UniProt Q8VNN2); type: functional
Streptokinase A = target: T7, Streptokinase A (Streptococcus pyogenes serotype M1, UniProt P10520); test: viability-normalized secreted streptokinase activity reduction – plasminogen activation absorbance, OD405, dose response (AID 1914); type: functional, Streptococcus pyogenes M1 GAS;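 also: secreted streptokinase activity via plasminogen activation per viability signal from cell pellet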
T7 sequence (P10520 whole entry): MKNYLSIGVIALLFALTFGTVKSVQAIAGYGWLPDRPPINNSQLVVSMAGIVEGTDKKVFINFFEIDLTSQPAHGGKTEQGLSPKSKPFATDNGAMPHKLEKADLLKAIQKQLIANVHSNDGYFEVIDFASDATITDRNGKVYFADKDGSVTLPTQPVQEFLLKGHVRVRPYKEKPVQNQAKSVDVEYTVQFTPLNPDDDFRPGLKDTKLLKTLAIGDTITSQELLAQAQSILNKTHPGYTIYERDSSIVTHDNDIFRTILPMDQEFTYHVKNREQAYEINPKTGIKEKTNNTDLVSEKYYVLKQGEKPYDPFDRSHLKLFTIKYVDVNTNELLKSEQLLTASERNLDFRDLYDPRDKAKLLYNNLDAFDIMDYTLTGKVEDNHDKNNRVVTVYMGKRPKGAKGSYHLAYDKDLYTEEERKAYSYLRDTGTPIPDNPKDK

[12] = target: T8, Delta-type opioid receptor (Homo sapiens, UniProt P41143); test: HTS Image-Based Screen for Agonists of the DOR Receptor. [Related pubchem assays (depositor defined):AID1777, AID1786, AID2133]; type: functional
[13] = target: T8, Delta-type opioid receptor; test: HTS Image-Based Screen for Antagonists of the DOR Receptor. [Related pubchem assays (depositor defined):AID1777, AID1785, AID1786, AID2133]; type: functional
[14] = system: Streptococcus sp. 'group A'; test: Streptococcus pyogenes SK(-)GAS viability under kanamycin – luminescence, BacTiterGlo, confirmation, counter-screen for streptokinase expression inhibitor project, dose response (AID 1900); type: functional, organism-based
[15] = target: T6, Kappa-type opioid receptor; type: functional; remark: listed apart in the source
[16] = target: T9, Phosphoethanolamine/phosphocholine phosphatase (Homo sapiens, UniProt Q8TCT1); test: SAR assay for compounds that inhibit PHOSPHO1. [Related pubchem assays (depositor defined):AID1545, AID1565, AID1574]
T9 sequence (Q8TCT1 whole entry): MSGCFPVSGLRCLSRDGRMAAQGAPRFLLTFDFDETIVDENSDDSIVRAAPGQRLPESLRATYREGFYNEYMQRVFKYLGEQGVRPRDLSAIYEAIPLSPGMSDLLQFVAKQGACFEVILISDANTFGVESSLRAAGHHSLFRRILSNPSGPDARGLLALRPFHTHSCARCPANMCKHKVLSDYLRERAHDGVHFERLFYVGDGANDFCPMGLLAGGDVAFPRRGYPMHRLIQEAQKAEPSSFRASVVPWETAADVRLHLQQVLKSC

[17] = target: T10, Mannose-6-phosphate isomerase (Homo sapiens, UniProt P34949); test: phosphomannose isomerase inhibition – biochemical, fluorescence intensity, confirmation (AID 1535)
T10 sequence (P34949 whole entry): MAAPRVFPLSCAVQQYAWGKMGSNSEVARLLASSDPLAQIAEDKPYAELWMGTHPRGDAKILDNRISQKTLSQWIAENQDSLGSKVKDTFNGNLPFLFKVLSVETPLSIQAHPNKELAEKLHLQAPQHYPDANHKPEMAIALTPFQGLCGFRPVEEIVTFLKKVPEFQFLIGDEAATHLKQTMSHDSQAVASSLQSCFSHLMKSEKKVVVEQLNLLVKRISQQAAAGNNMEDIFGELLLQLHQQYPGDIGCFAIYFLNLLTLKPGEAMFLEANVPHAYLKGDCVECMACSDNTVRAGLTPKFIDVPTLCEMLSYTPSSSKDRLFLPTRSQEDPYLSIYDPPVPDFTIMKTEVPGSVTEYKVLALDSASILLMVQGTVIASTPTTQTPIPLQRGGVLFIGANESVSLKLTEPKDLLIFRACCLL

Phosphomannomutase 2 = target: T11, Phosphomannomutase 2 (Homo sapiens, UniProt O15305); test: Counter screen SAR assay for PMM2 inhibitors via a fluorescence intensity assay. [Related pubchem assays (depositor defined):AID1545, AID1574]
T11 sequence (O15305 whole entry): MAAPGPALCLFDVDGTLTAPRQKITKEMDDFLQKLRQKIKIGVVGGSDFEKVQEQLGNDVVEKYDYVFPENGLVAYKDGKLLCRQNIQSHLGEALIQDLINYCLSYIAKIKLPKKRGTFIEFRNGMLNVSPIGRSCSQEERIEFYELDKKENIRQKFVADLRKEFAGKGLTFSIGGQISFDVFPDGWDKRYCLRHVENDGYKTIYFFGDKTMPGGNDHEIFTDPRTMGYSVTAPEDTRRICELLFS

Chain of Peroxisome proliferator-activated receptor gamma/Nuclear receptor coactivator 3 (P37231 whole entry): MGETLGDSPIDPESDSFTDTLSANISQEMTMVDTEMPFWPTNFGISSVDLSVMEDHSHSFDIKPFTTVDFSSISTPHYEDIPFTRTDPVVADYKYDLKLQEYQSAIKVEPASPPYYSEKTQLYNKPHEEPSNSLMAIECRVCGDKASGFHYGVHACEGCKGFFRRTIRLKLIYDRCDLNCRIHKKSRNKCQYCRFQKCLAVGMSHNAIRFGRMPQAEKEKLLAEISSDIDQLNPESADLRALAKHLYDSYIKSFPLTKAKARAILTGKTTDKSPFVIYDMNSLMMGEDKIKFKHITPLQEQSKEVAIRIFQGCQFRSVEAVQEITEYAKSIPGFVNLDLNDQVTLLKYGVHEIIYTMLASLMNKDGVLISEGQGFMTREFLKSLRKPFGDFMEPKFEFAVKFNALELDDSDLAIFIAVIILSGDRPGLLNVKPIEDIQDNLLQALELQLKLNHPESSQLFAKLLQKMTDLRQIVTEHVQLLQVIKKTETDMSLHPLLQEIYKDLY
Chain of Peroxisome proliferator-activated receptor gamma/Nuclear receptor coactivator 3 (Q9Y6Q9 whole entry, further chain): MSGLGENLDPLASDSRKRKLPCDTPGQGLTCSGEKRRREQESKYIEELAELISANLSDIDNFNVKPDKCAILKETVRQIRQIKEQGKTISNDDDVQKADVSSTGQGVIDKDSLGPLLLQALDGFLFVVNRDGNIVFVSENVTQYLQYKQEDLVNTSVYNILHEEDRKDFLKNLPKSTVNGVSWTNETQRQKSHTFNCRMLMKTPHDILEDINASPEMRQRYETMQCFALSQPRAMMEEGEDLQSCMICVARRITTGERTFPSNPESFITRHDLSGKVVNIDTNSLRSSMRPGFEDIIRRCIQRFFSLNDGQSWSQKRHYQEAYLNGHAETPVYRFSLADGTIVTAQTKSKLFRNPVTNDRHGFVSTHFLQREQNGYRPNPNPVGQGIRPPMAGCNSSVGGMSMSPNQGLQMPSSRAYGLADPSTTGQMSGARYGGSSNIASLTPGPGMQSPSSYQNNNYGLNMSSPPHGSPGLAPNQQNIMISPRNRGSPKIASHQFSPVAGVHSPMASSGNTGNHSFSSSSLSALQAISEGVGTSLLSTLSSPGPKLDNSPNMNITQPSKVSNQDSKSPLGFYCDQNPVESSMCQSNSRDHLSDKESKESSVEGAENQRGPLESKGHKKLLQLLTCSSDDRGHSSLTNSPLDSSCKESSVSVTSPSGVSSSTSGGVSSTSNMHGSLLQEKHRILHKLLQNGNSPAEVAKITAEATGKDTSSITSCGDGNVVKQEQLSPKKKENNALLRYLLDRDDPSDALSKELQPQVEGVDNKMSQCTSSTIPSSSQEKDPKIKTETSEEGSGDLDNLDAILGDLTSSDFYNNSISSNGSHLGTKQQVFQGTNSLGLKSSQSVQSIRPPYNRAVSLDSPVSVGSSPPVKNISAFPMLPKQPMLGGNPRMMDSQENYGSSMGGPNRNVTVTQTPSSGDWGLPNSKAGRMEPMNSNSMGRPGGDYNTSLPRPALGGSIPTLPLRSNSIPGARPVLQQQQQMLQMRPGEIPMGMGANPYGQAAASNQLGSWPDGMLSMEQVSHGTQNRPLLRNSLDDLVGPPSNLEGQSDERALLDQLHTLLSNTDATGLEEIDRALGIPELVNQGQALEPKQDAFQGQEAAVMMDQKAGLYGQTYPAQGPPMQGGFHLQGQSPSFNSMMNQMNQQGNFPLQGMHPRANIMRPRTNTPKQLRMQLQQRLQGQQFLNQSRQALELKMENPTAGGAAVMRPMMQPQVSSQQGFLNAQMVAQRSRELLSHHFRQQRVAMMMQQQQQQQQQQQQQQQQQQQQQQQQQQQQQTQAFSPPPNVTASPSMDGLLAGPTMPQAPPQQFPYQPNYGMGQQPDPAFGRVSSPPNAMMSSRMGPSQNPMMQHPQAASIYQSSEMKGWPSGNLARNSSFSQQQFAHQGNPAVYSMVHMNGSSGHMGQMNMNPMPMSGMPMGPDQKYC
Chain of Peroxisome proliferator-activated receptor gamma/Nuclear receptor coactivator 2 (P37231 whole entry): as the sequence (P37231 whole entry) above
Chain of Peroxisome proliferator-activated receptor gamma/Nuclear receptor coactivator 2 (Q15596 whole entry, further chain): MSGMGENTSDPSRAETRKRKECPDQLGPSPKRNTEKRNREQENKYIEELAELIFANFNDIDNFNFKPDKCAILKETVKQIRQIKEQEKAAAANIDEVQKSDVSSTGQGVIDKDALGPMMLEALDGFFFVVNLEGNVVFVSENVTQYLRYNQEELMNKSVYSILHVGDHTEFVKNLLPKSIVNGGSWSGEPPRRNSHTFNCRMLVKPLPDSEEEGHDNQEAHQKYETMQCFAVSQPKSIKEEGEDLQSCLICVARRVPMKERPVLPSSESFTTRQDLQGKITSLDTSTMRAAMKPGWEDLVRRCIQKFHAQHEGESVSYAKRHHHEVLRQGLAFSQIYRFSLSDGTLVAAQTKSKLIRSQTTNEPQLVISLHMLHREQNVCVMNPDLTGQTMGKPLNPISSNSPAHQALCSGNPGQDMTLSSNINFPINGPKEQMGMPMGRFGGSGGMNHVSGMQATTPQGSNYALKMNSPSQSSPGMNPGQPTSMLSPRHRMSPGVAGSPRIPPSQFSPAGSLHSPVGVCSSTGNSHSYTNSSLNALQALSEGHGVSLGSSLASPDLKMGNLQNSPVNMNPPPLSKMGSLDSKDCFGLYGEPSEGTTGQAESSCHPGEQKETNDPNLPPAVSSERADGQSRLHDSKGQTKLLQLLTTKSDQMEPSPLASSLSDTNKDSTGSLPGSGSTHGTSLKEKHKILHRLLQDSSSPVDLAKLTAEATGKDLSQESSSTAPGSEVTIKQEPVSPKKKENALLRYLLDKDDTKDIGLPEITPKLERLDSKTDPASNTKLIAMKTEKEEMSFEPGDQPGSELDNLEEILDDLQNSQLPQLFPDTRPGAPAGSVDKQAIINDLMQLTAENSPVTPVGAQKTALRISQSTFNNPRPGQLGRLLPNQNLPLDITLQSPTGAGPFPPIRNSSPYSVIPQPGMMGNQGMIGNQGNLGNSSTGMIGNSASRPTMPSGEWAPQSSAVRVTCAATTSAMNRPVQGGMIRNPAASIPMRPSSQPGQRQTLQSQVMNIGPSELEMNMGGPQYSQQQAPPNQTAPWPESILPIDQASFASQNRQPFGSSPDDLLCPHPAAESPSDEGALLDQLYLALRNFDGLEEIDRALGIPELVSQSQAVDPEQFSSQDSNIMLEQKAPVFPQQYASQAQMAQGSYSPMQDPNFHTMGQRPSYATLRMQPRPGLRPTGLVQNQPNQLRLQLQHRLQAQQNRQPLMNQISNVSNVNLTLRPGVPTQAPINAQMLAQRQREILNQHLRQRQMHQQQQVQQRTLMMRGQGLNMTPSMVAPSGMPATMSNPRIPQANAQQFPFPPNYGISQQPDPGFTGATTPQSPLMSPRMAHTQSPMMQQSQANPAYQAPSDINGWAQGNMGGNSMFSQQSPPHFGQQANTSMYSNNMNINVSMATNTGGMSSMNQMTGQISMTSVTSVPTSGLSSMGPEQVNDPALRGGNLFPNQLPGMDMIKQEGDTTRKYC
T8 sequence (P41143 whole entry): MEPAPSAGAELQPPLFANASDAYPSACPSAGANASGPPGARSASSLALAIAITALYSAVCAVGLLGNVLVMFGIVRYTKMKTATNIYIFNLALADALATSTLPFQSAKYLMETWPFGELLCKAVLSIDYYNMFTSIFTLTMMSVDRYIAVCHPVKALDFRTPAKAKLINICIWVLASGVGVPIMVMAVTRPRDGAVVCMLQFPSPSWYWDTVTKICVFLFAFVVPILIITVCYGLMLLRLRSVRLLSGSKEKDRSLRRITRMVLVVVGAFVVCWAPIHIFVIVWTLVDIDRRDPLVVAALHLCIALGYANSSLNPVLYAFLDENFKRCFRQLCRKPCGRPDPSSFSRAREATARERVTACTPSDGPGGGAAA
T6 sequence (P41145 whole entry): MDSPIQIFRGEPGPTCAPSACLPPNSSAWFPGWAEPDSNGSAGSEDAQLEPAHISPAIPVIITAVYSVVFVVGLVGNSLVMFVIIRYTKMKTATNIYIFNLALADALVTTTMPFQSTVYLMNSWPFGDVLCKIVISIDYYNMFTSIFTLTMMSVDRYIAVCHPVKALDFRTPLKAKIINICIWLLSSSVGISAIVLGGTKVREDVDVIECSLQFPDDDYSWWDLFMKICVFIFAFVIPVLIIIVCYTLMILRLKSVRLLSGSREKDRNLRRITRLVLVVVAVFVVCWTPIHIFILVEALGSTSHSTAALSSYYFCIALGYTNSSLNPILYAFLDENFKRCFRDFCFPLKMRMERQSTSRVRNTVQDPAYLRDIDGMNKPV
Chain of Mu-type opioid receptor (P35372 whole entry): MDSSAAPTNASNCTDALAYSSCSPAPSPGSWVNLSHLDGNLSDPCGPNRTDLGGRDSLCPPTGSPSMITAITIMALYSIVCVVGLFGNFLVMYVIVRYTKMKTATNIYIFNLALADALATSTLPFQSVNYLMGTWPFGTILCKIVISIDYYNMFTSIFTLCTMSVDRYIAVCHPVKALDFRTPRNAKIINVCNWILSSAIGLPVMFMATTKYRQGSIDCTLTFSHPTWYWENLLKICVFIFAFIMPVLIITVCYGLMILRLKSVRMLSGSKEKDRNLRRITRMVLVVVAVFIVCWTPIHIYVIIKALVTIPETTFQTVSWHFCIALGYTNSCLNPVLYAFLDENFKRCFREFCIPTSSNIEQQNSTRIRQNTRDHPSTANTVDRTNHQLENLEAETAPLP

CCn1c(=S)[nH]c2scc(-c3cccs3)c2c1=O
EC50 [1]: 11.1 µM (not active) | EC50 [2]: > 79.4 µM (not active) | EC50 [3]: > 160 µM (inactive) | EC50 [4]: 1.23 µM (active) | EC50 [5]: 8.82 µM (active)

Cc1ccc(C)n1-c1ccc(-c2nnc3n2CCCCC3)s1
EC50 [1]: 38.7 µM (not active) | EC50 [2]: > 79.4 µM (not active) | IC50 [6]: 86.7 µM (active) | EC50 [5]: > 79.4 µM (inactive)

Cc1cc(-c2ccc(Br)s2)nc(-n2cccc2)n1
EC50 [1]: 19.3 µM (not active) | EC50 [2]: > 79.4 µM (not active) | EC50 [5]: > 79.4 µM (inactive)

CCOc1ccc(NS(=O)(=O)c2cc(C(=O)NCCCN3CCOCC3)ccc2C)cc1
IC50 [7]: 10.5 µM (active) | IC50 [8]: 9.23 µM (active) | IC50 (Bcl-2-related protein A1): > 20 µM (inactive)

CCOc1cc2[nH]c(=S)n(CCN3CCCCC3CC)c(=O)c2cc1OCC (stereo unspecified)
EC50 [9]: > 100 µM (inactive)

Cn1cc[n+](C)c1P(=S)(c1ccccc1)c1ccccc1
EC50 [10]: 0.237 µM (active)

O=C(CC1C(=O)NCCN1Cc1cccc(Oc2ccccc2)c1)NCCc1ccccn1 (stereo unspecified)
EC50 [10]: 4.73 µM (active)

CCCc1nc2oc3c(Cl)ncnc3c2c2c1CCCC2
EC50 (Mu-type opioid receptor): > 32 µM (inactive) | EC50 (Streptococcus): > 150 µM (not active) | IC50 [11]: 4.64 µM (active) | EC50 (Beta-galactosidase): > 31.5 µM (inactive) | EC50 (Streptokinase A): > 150 µM (not active) | EC50 [12]: > 32 µM (inactive) | IC50 [13]: > 32 µM (inactive) | EC50 [14]: > 150 µM (not active) | IC50 [15]: > 32 µM

O=c1c2ccc(F)cc2sn1-c1ccc(Cl)c(Cl)c1
IC50 [16]: > 100 µM (inactive) | IC50 [17]: > 50 µM (inactive) | IC50 (Phosphomannomutase 2): > 100 µM (inactive)

CCC(c1nnnn1CCOC)N(Cc1ccc(C)cc1)Cc1cc2cc(OC)ccc2[nH]c1=O (stereo unspecified)
EC50 [9]: > 100 µM (inactive)
